Data published in US11000033B2, “Ketone or oxime compound, and herbicide” (NISSAN CHEMICAL CORPORATION, priority 2014, dated 2021).

Key:
Format in all cases: in vivo
Digitaria ciliaris = experiment: Test Example 4: herbicidal effect by soil treatment (symbol F)
In short: (§1)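 Seeds were sown in sterilized diluvial soil, covered with about 1.5 cm of soil, and the soil surface was sprayed with a water-diluted emulsion of the compound at a predetermined rate. Plants grew in a greenhouse at 25° C. to 30° C.; effects were scored visually 3 weeks after application.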

beet = experiment: Test Example 4: effect on crop by soil treatment (symbol f); details: for Effect on crop grade, f: beet / f: beet, effect on crop grade: application herbicide amount 320 g/ha; for f: beet, effect grade on crop: 320 g/ha
In short: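 Greenhouse culture at 25° C. to 30° C. followed sowing of seed in spots on sterilized diluvial soil with a soil cover close to 1.5 cm thick.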

Monochoria vaginalis = experiment: Test Example 1: herbicidal activity, application before weed generation in submerged conditions (symbol C); details: application herbicide amount 320 g/ha
In short: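 Compound emulsion was diluted to a set herbicide amount and applied to the water surface on the sowing day, into submerged (4 cm) alluvial-soil pots sown with mixed weed seeds and transplanted 2.5-leaf rice. Pots were held in a 25–30 °C greenhouse, and weeds were scored 0–5 by herbicidal ratio after 3 weeks.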

Leptochloa chinensis = experiment: Test Example 3: herbicidal effect by foliage application, Wagner pot (symbol D); details: application herbicide amount 320 g/ha; for D (Leptochloa chinensis) herbicidal effect grade: Table 24
In short: (§2)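 Seeds sown in alluvial soil kept under 0.1–0.5 cm water, greenhouse 25–30 °C; 14 d growth. Leaves treated by small sprayer with water-diluted emulsion at a predetermined rate. Effect graded by set scale, 3 weeks.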

corn = experiment: Test Example 5: effect on crop by foliage application, plastic box (symbol c); details: 320 g/ha, 3 weeks after application
In short: (§3)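 A greenhouse held between 25° C. and 30° C. was used to grow plants sown spot-wise, beneath ~1.5 cm of soil, in boxes of sterilized diluvial soil.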

[1] = system: directly sowed rice plant; experiment: Test Example 3: effect on crop by foliage application, Wagner pot (symbol b); details: application herbicide amount 320 g/ha; for b (directly sowed rice plant) effect on crop grade: Table 24
In short: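 Plants are raised from seed in flooded paddy conditions: water stands 0.1–0.5 cm over alluvial soil, and the pot is kept in a greenhouse at 25–30 °C. Species sown are barnyardgrass (E. crus-galli var. crus-galli), Leptochloa chinensis, Cyperus difformis and rice.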

Chenopodium album = experiment: Test Example 4: herbicidal effect by soil treatment (symbol O)
In short: as §1

soybean = experiment: Test Example 5: effect on crop by foliage application, plastic box (symbol d); details: 320 g/ha, 3 weeks after application
In short: as §3

[2] = system: Echinochloa crus-galli var. crus-galli; experiment: Test Example 3: herbicidal effect by foliage application, Wagner pot (symbol H); details: application herbicide amount 320 g/ha; for H (Echinochloa crus-galli var. crus-galli) herbicidal effect grade: Table 24
In short: as §2

transplanted rice plant = experiment: Test Example 1: effect on crop, application before weed generation in submerged conditions (symbol a); details: application herbicide amount 320 g/ha
In short: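 Alluvial soil pots flooded to 4 cm water, sown with Echinochloa oryzacola, Scirpus juncoides and Monochoria vaginalis, then transplanted with 2.5 leaf stage rice seedlings; pre-emergence application. Greenhouse 25° C. to 30° C.; scored 0–5 by herbicidal ratio 3 weeks after application.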

Lolium multiflorum Lam. = experiment: Test Example 4: herbicidal effect by soil treatment (symbol K)
In short: as §1

[3] = system: Echinochloa oryzacola Vasing.; experiment: Test Example 2: herbicidal activity, application during weed generation in submerged conditions (symbol A); details: Table 23; application herbicide amount 320 g/ha; grade 0-5 by criteria of Test Example 1
In short: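 Each pot contained alluvial soil under 4 cm of water with seeds of all three weeds sown together. Following growth at 25° C. to 30° C. to the one- to two-leaf stage, the floodwater received diluted emulsion at a predetermined amount; visual assessment followed at 3 weeks.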

[4] = application herbicide amount 320 g/ha

| SMILES | Herbicidal effect grade, F: Digitaria ciliaris (Digitaria ciliaris; [4]) | Effect on crop grade, f: beet (beet) | C (Monochoria vaginalis) herbicidal effect grade (Monochoria vaginalis) | D (Leptochloa chinensis) herbicidal effect grade (Leptochloa chinensis) | c: corn, effect on crop grade (corn) | b (directly sowed rice plant) effect on crop grade [1] | Herbicidal effect grade, O: Chenopodium album (Chenopodium album; [4]) | d: soybean, effect on crop grade (soybean) | H (Echinochloa crus-galli var. crus-galli) herbicidal effect grade [2] | a (transplanted rice plant) effect on crop grade (transplanted rice plant) | Herbicidal effect grade, K: Lolium multiflorum Lam. (Lolium multiflorum Lam.; [4]) | Herbicidal effect grade, A: Echinochloa oryzacola Vasing. [3] | F: Digitaria ciliaris, herbicidal effect grade (Digitaria ciliaris; 320 g/ha) | f: beet, effect grade on crop (beet) | Herbicidal effect grade, C: Monochoria vaginalis (Monochoria vaginalis) | herbicidal effect on D (Leptochloa chinensis), grade 0-5 (Leptochloa chinensis) | c: corn, effect on crop (criteria 0-5) (corn) | effect on crop b (directly sowed rice plant), grade 0-5 [1] | O: Chenopodium album, herbicidal effect grade (Chenopodium album; 320 g/ha) | d: soybean, effect on crop (criteria 0-5) (soybean) | other results |
| --- | --- | --- | --- | --- | --- | --- | --- | --- | --- | --- | --- | --- | --- | --- | --- | --- | --- | --- | --- | --- | --- |
| CC#Cc1cc(C)c(C2=C(O)CC(CC(=NOC)C(C)C)C2=O)c(C)c1 (stereo not drawn) [9-006] | 5 (Herbicidal ratio of 90% or more (almost completely withered)) | 0 (Herbicidal ratio of 5% or lower (almost no effect)) | 0 (Herbicidal ratio of 5% or lower (almost no effect)) | 5 (Herbicidal ratio of 90% or more (almost completely withered)) | 5 (Herbicidal ratio of 90% or more (almost completely withered)) | 5 (Herbicidal ratio of 90% or more (almost completely withered)) | 0 (Herbicidal ratio of 5% or lower (almost no effect)) | 0 (Herbicidal ratio of 5% or lower (almost no effect)) | 5 (Herbicidal ratio of 90% or more (almost completely withered)) | 5 (Herbicidal ratio of 90% or more (almost completely withered)) | 5 (Herbicidal ratio of 90% or more (almost completely withered)) | 5 (Herbicidal ratio of 90% or more (almost completely withered)) | – | – | – | – | – | – | – | – | – |
| CON=C(C)CC1CC(OC(=O)CSc2ccccc2)=C(c2c(C)cc(C)cc2C)C1=O (stereo not drawn) [1-134] | – | – | – | – | – | – | – | – | – | – | – | 5 (Herbicidal ratio of 90% or more (almost completely withered)) | 5 (Herbicidal ratio of 90% or more (almost completely withered)) | 0 (Herbicidal ratio of 5% or lower (almost no effect)) | 1 (Herbicidal ratio of 5% or higher and lower than 20%) | 5 (Herbicidal ratio of 90% or more (almost completely withered)) | 5 (Herbicidal ratio of 90% or more (almost completely withered)) | 5 (Herbicidal ratio of 90% or more (almost completely withered)) | 0 (Herbicidal ratio of 5% or lower (almost no effect)) | 2 (Herbicidal ratio of 20% or higher and lower than 40%) | herbicidal effect on H (Echinochloa crus-galli var. crus-galli), grade 0-5 [2]: 5 (Herbicidal ratio of 90% or more (almost completely withered)); Effect grade on crop, a: transplanted rice plant (transplanted rice plant): 5 (Herbicidal ratio of 90% or more (almost completely withered)); K: Lolium multiflorum Lam., herbicidal effect grade (Lolium multiflorum Lam.; 320 g/ha): 5 (Herbicidal ratio of 90% or more (almost completely withered)) |
| CC#Cc1cc(C)c(C2=C(O)CC(CC(=NOCCOC)C3CC3)C2=O)c(C)c1 (stereo not drawn) [9-021] | 5 (Herbicidal ratio of 90% or more (almost completely withered)) | 0 (Herbicidal ratio of 5% or lower (almost no effect)) | 2 (Herbicidal ratio of 20% or higher and lower than 40%) | 5 (Herbicidal ratio of 90% or more (almost completely withered)) | 5 (Herbicidal ratio of 90% or more (almost completely withered)) | 5 (Herbicidal ratio of 90% or more (almost completely withered)) | 0 (Herbicidal ratio of 5% or lower (almost no effect)) | 1 (Herbicidal ratio of 5% or higher and lower than 20%) | 5 (Herbicidal ratio of 90% or more (almost completely withered)) | 5 (Herbicidal ratio of 90% or more (almost completely withered)) | 5 (Herbicidal ratio of 90% or more (almost completely withered)) | 5 (Herbicidal ratio of 90% or more (almost completely withered)) | – | – | – | – | – | – | – | – | – |
| CCC(CC1CC(O)=C(c2c(C)cc(C)cc2OC)C1=O)=NOC (mixture of isomers) [13-003] | – | – | 0 (Herbicidal ratio of 5% or lower (almost no effect)) | 5 (Herbicidal ratio of 90% or more (almost completely withered)) | 5 (Herbicidal ratio of 90% or more (almost completely withered)) | 5 (Herbicidal ratio of 90% or more (almost completely withered)) | – | 3 (Herbicidal ratio of 40% or higher and lower than 70%) | 5 (Herbicidal ratio of 90% or more (almost completely withered)) | 5 (Herbicidal ratio of 90% or more (almost completely withered)) | – | 5 (Herbicidal ratio of 90% or more (almost completely withered)) | – | – | – | – | – | – | – | – | F: Digitaria ciliaris, herbicidal effect grade (Digitaria ciliaris; [4]): 5 (Herbicidal ratio of 90% or more (almost completely withered)); f: beet, effect on crop grade (beet): 0 (Herbicidal ratio of 5% or lower (almost no effect)); O: Chenopodium album, herbicidal effect grade (Chenopodium album; [4]): 0 (Herbicidal ratio of 5% or lower (almost no effect)); K: Lolium multiflorum Lam., herbicidal effect grade (Lolium multiflorum Lam.; [4]): 5 (Herbicidal ratio of 90% or more (almost completely withered)) |
| CON=C(CC1CC(OC(=O)N2CCOCC2)=C(c2c(C)cc(C)cc2OC)C1=O)C1CC1 (mixture of isomers) [13-005] | – | – | 2 (Herbicidal ratio of 20% or higher and lower than 40%) | 5 (Herbicidal ratio of 90% or more (almost completely withered)) | 4 (Herbicidal ratio of 70% or higher and lower than 90%) | 5 (Herbicidal ratio of 90% or more (almost completely withered)) | – | 0 (Herbicidal ratio of 5% or lower (almost no effect)) | 5 (Herbicidal ratio of 90% or more (almost completely withered)) | 5 (Herbicidal ratio of 90% or more (almost completely withered)) | – | 5 (Herbicidal ratio of 90% or more (almost completely withered)) | – | – | – | – | – | – | – | – | F: Digitaria ciliaris, herbicidal effect grade (Digitaria ciliaris; [4]): 4 (Herbicidal ratio of 70% or higher and lower than 90%); f: beet, effect on crop grade (beet): 0 (Herbicidal ratio of 5% or lower (almost no effect)); O: Chenopodium album, herbicidal effect grade (Chenopodium album; [4]): 0 (Herbicidal ratio of 5% or lower (almost no effect)); K: Lolium multiflorum Lam., herbicidal effect grade (Lolium multiflorum Lam.; [4]): 5 (Herbicidal ratio of 90% or more (almost completely withered)) |
| CON=C(C)CON=C(C)CC1CC(O)=C(c2c(C)cc(C)cc2C)C1=O (stereo not drawn) [1-105] | – | – | – | – | – | – | – | – | – | – | – | 5 (Herbicidal ratio of 90% or more (almost completely withered)) | 5 (Herbicidal ratio of 90% or more (almost completely withered)) | 0 (Herbicidal ratio of 5% or lower (almost no effect)) | 4 (Herbicidal ratio of 70% or higher and lower than 90%) | 5 (Herbicidal ratio of 90% or more (almost completely withered)) | 4 (Herbicidal ratio of 70% or higher and lower than 90%) | 5 (Herbicidal ratio of 90% or more (almost completely withered)) | 0 (Herbicidal ratio of 5% or lower (almost no effect)) | 1 (Herbicidal ratio of 5% or higher and lower than 20%) | herbicidal effect on H (Echinochloa crus-galli var. crus-galli), grade 0-5 [2]: 5 (Herbicidal ratio of 90% or more (almost completely withered)); Effect grade on crop, a: transplanted rice plant (transplanted rice plant): 5 (Herbicidal ratio of 90% or more (almost completely withered)); K: Lolium multiflorum Lam., herbicidal effect grade (Lolium multiflorum Lam.; 320 g/ha): 5 (Herbicidal ratio of 90% or more (almost completely withered)) |
